# Measured values published in ChEMBL document CHEMBL4610081, “Anti-inflammatory Metabolites from Chaetomium nigricolor” (J Nat Prod, 2020).
# Activity calls are given as the source filed them. The rule behind the calls is not given here.
# Test system: RAW264.7
# Assay: Antiinflammatory activity against mouse RAW264.7 cells assessed as inhibition of LPS-induced NO production preincubated for 3 hrs followed by LPS-stimulation and measured after 24 hrs by Griess reagent based assay
# Type: functional, cell-based
compound,measurement,value
O=c1ccoc(Cc2ccccc2)c1,Activity,inactive
